# Results: patent US20260166162A1, “CARBON CHAIN SUBSTANCE FOR REGULATING TRANSMEMBRANE TRANSPORT AND FLUIDITY OF CELL MEMBRANES, AND PREPARATION AND USE THEREOF” (priority 2022, published 2026)
# Like-named read-outs stand apart in the source and are kept apart here.
# How the values were obtained:
# Staphylococcus aureus = test: Bacteriostasis/sterilization test (plate count); assay type: cell-based; conditions: for Inhibition rate (%) / inhibition at 35 µM: 0.035 mM (Table 25); for inhibition at 35 µM: read-out: Inhibition rate (%); for inhibition at 9 µM: concentration 0.009 mM, read-out: inhibition rate
# [1] = mouse, in vivo, po
# VERO E6 cells = test: Cytotoxicity (CCK-8) on VERO E6 cells
# Escherichia coli = test: Bacteriostasis/sterilization test (plate count); assay type: cell-based; conditions: for Inhibition rate (%): 0.035 mM (Table 25); for inhibition at 35 µM: Escherichia coli, read-out: Inhibition rate (%)
# [2] = test system: Methicillin-resistant Staphylococcus aureus; test: Bacteriostasis/sterilization test (plate count); assay type: cell-based; conditions: for Inhibition rate (%): 0.035 mM (Table 25)
# Streptococcus pneumoniae = test: Bacteriostasis/sterilization test (plate count); assay type: cell-based; conditions: for Inhibition rate (%): 0.035 mM (Table 25); for inhibition at 35 µM: Streptococcus pneumoniae, read-out: Inhibition rate (%)
# Klebsiella pneumoniae = test: Bacteriostasis/sterilization test (plate count); assay type: cell-based; conditions: for Inhibition rate (%): 0.035 mM (Table 25); for inhibition at 35 µM: Klebsiella pneumoniae, read-out: Inhibition rate (%)
# Pseudomonas aeruginosa = test: Bacteriostasis/sterilization test (plate count); assay type: cell-based; conditions: for Inhibition rate (%): 0.035 mM (Table 25); for inhibition at 35 µM: Pseudomonas aeruginosa, read-out: Inhibition rate (%)
# H7N9 pseudovirus = assay type: cell-based, Influenza pseudovirus H7N9-Fluc
# H5N1 pseudovirus = assay type: cell-based, Influenza pseudovirus H5N1-Fluc
# HIV pseudovirus = assay type: cell-based, HIV pseudovirus HIV18A-41
# SARS-CoV-2 pseudovirus [3] = assay type: cell-based, SARS-CoV-2 pseudovirus B.1.526.2
# [4] = test system: SARS-CoV-2 pseudovirus (B.1.526.2); assay type: cell-based; conditions: n=3
# 293T cells = test: Cellular phagocytosis of DiD-loaded lipid vesicles (nano-drugs) by 293T cells (Example II-51, Table II-29); assay type: cell-based; conditions: 293T cells pretreated 4 h, DiD lipid vesicles 2 h, n=3, untreated control 226.46 ± 1.26
# SARS-CoV-2 pseudovirus [5] = test system: SARS-CoV-2 pseudovirus; design: species or system SARS-CoV-2 pseudovirus B.1.526.2
# TNF-α [6] = test: Skin photoaging (UVB) in BALB/c nude mice, serum TNF-α (Example II-54, Table II-32); assay type: in vivo, mouse; conditions: UVB-irradiated BALB/c nude mice, 40 days
# IL-1β [7] = test: Skin photoaging (UVB) in BALB/c nude mice, serum IL-1β (Example II-54, Table II-33); assay type: in vivo, mouse; conditions: serum, UVB-irradiated BALB/c nude mice, 40 days
# IL-6 [8] = test: Skin photoaging (UVB) in BALB/c nude mice, serum IL-6 (Example II-54, Table II-34); assay type: in vivo, mouse; conditions: serum, UVB-irradiated BALB/c nude mice, 40 days
# IL-1β [9] = test: LPS inflammatory aging in C57BL/6 mice, serum IL-1β (Example II-55, Table II-35); assay type: in vivo, mouse; conditions: 1 mM, 200 μl/time, once a day, 30 days
# IL-6 [10] = test: LPS inflammatory aging in C57BL/6 mice, serum IL-6 (Example II-55, Table II-36); assay type: in vivo, mouse; conditions: 1 mM, 200 μl/time once a day for 30 days; serum, LPS C57BL/6 mice
# TNF-α [11] = test: LPS inflammatory aging in C57BL/6 mice, serum TNF-α (Example II-55, Table II-37); assay type: in vivo, mouse; conditions: 1 mM, 200 μl/time once a day for 30 days, LPS C57BL/6 mice
# [12] = test system: influenza pseudovirus H7N9-Fluc; test: microbe, parasite or virus in culture; assay type: cell-based; conditions: n=3
# Neocopyovirus = assay type: in vivo; conditions: 1 mM; n=3
# HIV pseudovirus (18A-41) = assay type: cell-based; conditions: 293T cells pretreated 4 h, n=3
# [13] = read-out: half inhibition concentration
# [14] = Staphylococcus aureus, read-out: half inhibition concentration
molecule,measurement,setting,value
CCCCCCCC/C=C\CCCCCCCC(=O)NCCCCC(N)C(=O)O (stereo not shown),inhibition rate,Staphylococcus aureus; concentration 0.035 mM,greater than 99%
same,IC50,Staphylococcus aureus; [13],9 µM
same,"liver, heart, kidney, bone/hepatobiliary function in blood versus control group",[1],no difference
same,"physiological state, body weight, fur color, food consumption, mental state versus control group",[1],not significantly different
same,effect of the complex on cells,VERO E6 cells; […] to 0.035 mM,less than 1%
CCCCCCCC/C=C\CCCCCCCC(=O)OC(C)C(N)C(=O)O (stereo not shown),Inhibition rate (%),Escherichia coli,99%
same,Inhibition rate (%),Staphylococcus aureus,99%
same,inhibition rate,Staphylococcus aureus; concentration 0.035 mM,greater than 99%
same,IC50,Staphylococcus aureus; [13],9 µM
same,Inhibition rate (%),[2],99%
same,Inhibition rate (%),Streptococcus pneumoniae,99%
same,Inhibition rate (%),Klebsiella pneumoniae,99%
same,Inhibition rate (%),Pseudomonas aeruginosa,99%
same,Sterilization rate (%),H7N9 pseudovirus,99%
same,Sterilization rate (%),H5N1 pseudovirus,99%
same,Sterilization rate (%),HIV pseudovirus,99%
same,Sterilization rate (%),SARS-CoV-2 pseudovirus [3],99%
CCCCCCCC(=O)OCC1OC(O)C(O)C(O)C1O (stereo not shown),Sterilization rate (%),"Escherichia coli; 9 mM, 2 h",>99%
same,IC50,"Staphylococcus aureus; 2 h, read-out: half maximal inhibition concentration",4500 µM
same,inhibition rate,"Staphylococcus aureus; concentration 72 mM-9 mM, 2 h",greater than 99%
same,Sterilization rate (%),"[2]; 9 mM, 2 h, listed as printed as Methicillin-resistant Streptococcus pneumoniae",>99%
same,Sterilization rate (%),"Streptococcus pneumoniae; 9 mM, 2 h",>99%
same,Sterilization rate (%),"Klebsiella pneumoniae; 9 mM, 2 h",>99%
same,Sterilization rate (%),"Pseudomonas aeruginosa; 9 mM, 2 h",>99%
CCCCCCCC(=O)OCC(N)C(=O)O (stereo not shown),Inhibition rate (%),Escherichia coli,99%
same,Inhibition rate (%),Staphylococcus aureus,99%
same,inhibition rate,Staphylococcus aureus; concentration 0.035 mM,greater than 99%
same,IC50,Staphylococcus aureus; [13],9 µM
same,Inhibition rate (%),[2],99%
same,Inhibition rate (%),Streptococcus pneumoniae,99%
same,Inhibition rate (%),Klebsiella pneumoniae,99%
same,Inhibition rate (%),Pseudomonas aeruginosa,99%
same,Sterilization rate (%),H7N9 pseudovirus,99%
same,Sterilization rate (%),H5N1 pseudovirus,99%
same,Sterilization rate (%),HIV pseudovirus,99%
same,Sterilization rate (%),SARS-CoV-2 pseudovirus [3],99%
same,Inhibition rate (%),[4]; 2 nM,30.54 ± 0.54%
same,Inhibition rate (%),[4]; 5 nM,52.06 ± 5.23%
same,Inhibition rate (%),[4]; 10 nM,53.84 ± 1.57%
same,Inhibition rate (%),[4]; 50 nM,56.33 ± 1.56%
same,Inhibition rate (%),[4]; 100 nM,63.22 ± 2.55%
same,Inhibition rate (%),[4]; 1 μM,-97.39 ± 7.23%
same,Inhibition rate (%),[4]; 10 μM,-44.26 ± 0.03%
same,Inhibition rate (%),[4]; 50 μM,71.36 ± 0.28%
same,Inhibition rate (%),[4]; 100 μM,73.55 ± 0.44%
same,Fluorescence intensity,293T cells; 2 nM,157.30 ± 0.13
same,Fluorescence intensity,293T cells; 5 nM,108.56 ± 0.13
same,Fluorescence intensity,293T cells; 10 nM,104.53 ± 0.13
same,Fluorescence intensity,293T cells; 50 nM,98.90 ± 0.13
same,Fluorescence intensity,293T cells; 100 nM,83.29 ± 5.66
same,Fluorescence intensity,293T cells; 1 uM,447.01 ± 12.33
same,Fluorescence intensity,293T cells; 10 uM,326.69 ± 4.66
same,Fluorescence intensity,293T cells; 50 uM,64.86 ± 5.13
same,Fluorescence intensity,293T cells; 100 uM,59.90 ± 4.13
CCCCCCCC(=O)OC(C)C(N)C(=O)O (stereo not shown),Inhibition rate (%),Escherichia coli,99%
same,Inhibition rate (%),Staphylococcus aureus,99%
same,inhibition rate,Staphylococcus aureus; concentration 0.035 mM,greater than 99%
same,IC50,Staphylococcus aureus; [13],9 µM
same,Inhibition rate (%),[2],99%
same,Inhibition rate (%),Streptococcus pneumoniae,99%
same,Inhibition rate (%),Klebsiella pneumoniae,99%
same,Inhibition rate (%),Pseudomonas aeruginosa,99%
same,Sterilization rate (%),H7N9 pseudovirus,99%
same,Sterilization rate (%),H5N1 pseudovirus,99%
same,Sterilization rate (%),HIV pseudovirus,99%
same,Sterilization rate (%),SARS-CoV-2 pseudovirus [3],99%
same,membrane structure of the virus (TEM),SARS-CoV-2 pseudovirus [5],broken
CCCCCCC(O)CC=CCCCCCCCC(=O)NCCCCC(N)C(=O)O (stereo not shown) [Lys-ricinoleic acid],TNF-α,TNF-α [6]; 30 μM smeared,60 pg/mL
same,TNF-α,TNF-α [6]; 50 μM smeared,55 pg/mL
same,TNF-α,TNF-α [6]; 100 μM smeared,57 pg/mL
same,IL-1β,IL-1β [7]; 30 μM smeared,70 pg/mL
same,IL-1β,IL-1β [7]; 50 μM smeared,65 pg/mL
same,IL-1β,IL-1β [7]; 100 μM smeared,63 pg/mL
same,IL-6,IL-6 [8]; 30 μM smeared,34 pg/mL
same,IL-6,IL-6 [8]; 50 μM smeared,38 pg/mL
same,IL-6,IL-6 [8]; 100 μM smeared,33 pg/mL
same,IL-1β,IL-1β [9],51 pg/mL
same,IL-6,IL-6 [10],60 pg/mL
same,TNF-α,TNF-α [11],43 pg/mL
CCCCCCCCCN(C)C[C@H](O)[C@@H](O)[C@H](O)[C@H](O)CO [N-nonyl-N-methylglucamine],inhibition at 35 µM,Escherichia coli,99%
same,inhibition at 35 µM,Staphylococcus aureus; Staphylococcus aureus,99%
same,inhibition at 9 µM,Staphylococcus aureus; Staphylococcus aureus,> 99%
same,IC50,Staphylococcus aureus; [14],3 µM
same,inhibition at 35 µM,Streptococcus pneumoniae,99%
same,inhibition at 35 µM,Klebsiella pneumoniae,99%
same,inhibition at 35 µM,Pseudomonas aeruginosa,99%
same,Sterilization rate (%),H7N9 pseudovirus,99%
same,Sterilization rate (%),H5N1 pseudovirus,99%
same,Sterilization rate (%),HIV pseudovirus,99%
same,Sterilization rate (%),SARS-CoV-2 pseudovirus [3],99%
same,"liver, heart, kidney, bone/hepatobiliary function in blood versus control group",[1],no difference
same,"physiological state, body weight, fur color, food consumption, mental state versus control group",[1],not significantly different
same,effect of the complex on cells,VERO E6 cells; 9 mM to 0.035 mM,less than 10%
CCCCCCCCN(C)C[C@H](O)[C@@H](O)[C@H](O)[C@H](O)CO [N-octyl-N-methylglucamine],inhibition at 35 µM,Escherichia coli,99%
same,inhibition at 35 µM,Staphylococcus aureus; Staphylococcus aureus,99%
same,inhibition at 9 µM,Staphylococcus aureus; Staphylococcus aureus,> 99%
same,IC50,Staphylococcus aureus; [14],3 µM
same,inhibition at 35 µM,Streptococcus pneumoniae,99%
same,inhibition at 35 µM,Klebsiella pneumoniae,99%
same,inhibition at 35 µM,Pseudomonas aeruginosa,99%
same,Sterilization rate (%),H7N9 pseudovirus,99%
same,Sterilization rate (%),H5N1 pseudovirus,99%
same,Sterilization rate (%),HIV pseudovirus,99%
same,Sterilization rate (%),SARS-CoV-2 pseudovirus [3],99%
same,"liver, heart, kidney, bone/hepatobiliary function in blood versus control group",[1],no difference
same,"physiological state, body weight, fur color, food consumption, mental state versus control group",[1],not significantly different
same,effect of the complex on cells,VERO E6 cells; 9 mM to 0.035 mM,less than 10%
CCCCCC=CCC=CCCCCCCCC(=O)OCC(N)C(=O)O (stereo not shown) [Ser-linoleic acid],TNF-α,TNF-α [6]; 30 μM smeared,48 pg/mL
same,TNF-α,TNF-α [6]; 50 μM smeared,51 pg/mL
same,TNF-α,TNF-α [6]; 100 μM smeared,45 pg/mL
same,IL-1β,IL-1β [7]; 30 μM smeared,53 pg/mL
same,IL-1β,IL-1β [7]; 50 μM smeared,54 pg/mL
same,IL-1β,IL-1β [7]; 100 μM smeared,55 pg/mL
same,IL-6,IL-6 [8]; 30 μM smeared,28 pg/mL
same,IL-6,IL-6 [8]; 50 μM smeared,27 pg/mL
same,IL-6,IL-6 [8]; 100 μM smeared,29 pg/mL
same,IL-1β,IL-1β [9],43 pg/mL
same,IL-6,IL-6 [10],39 pg/mL
same,TNF-α,TNF-α [11],49 pg/mL
CCC=CCC=CCC=CCCCCCCCC(=O)OC(C)C(N)C(=O)O (stereo not shown) [Thr-linolenic acid],IL-1β,IL-1β [9],41 pg/mL
same,IL-6,IL-6 [10],57 pg/mL
same,TNF-α,TNF-α [11],52 pg/mL
Glucosamine-erucic acid,Inhibition rate (%),[12]; 2 nM,50.54 ± 3.54%
same,Inhibition rate (%),[12]; 5 nM,39.66 ± 3.66%
same,Inhibition rate (%),[12]; 10 nM,48.04 ± 7.56%
same,Inhibition rate (%),[12]; 50 nM,47.33 ± 4.56%
same,Inhibition rate (%),[12]; 100 nM,53.86 ± 3.98%
same,Inhibition rate (%),[12]; 1 μM,12.07 ± 2.65%
same,Inhibition rate (%),[12]; 10 μM,54.05 ± 5.05%
same,Inhibition rate (%),[12]; 50 μM,91.44 ± 4.48%
same,Inhibition rate (%),[12]; 100 μM,99.78 ± 5.64%
same,Fluorescence intensity,Neocopyovirus,6.8 ± 0.49
Threonine-tetracosanoic acid,Inhibition rate (%),HIV pseudovirus (18A-41); 2 nM,81.01 ± 5.26%
same,Inhibition rate (%),HIV pseudovirus (18A-41); 5 nM,92.25 ± 5.03%
same,Inhibition rate (%),HIV pseudovirus (18A-41); 10 nM,94.06 ± 6.46%
same,Inhibition rate (%),HIV pseudovirus (18A-41); 50 nM,99.01 ± 6.33%
same,Inhibition rate (%),HIV pseudovirus (18A-41); 100 nM,98.64 ± 5.77%
same,Inhibition rate (%),HIV pseudovirus (18A-41); 1 μM,-42.03 ± 3.83%
same,Inhibition rate (%),HIV pseudovirus (18A-41); 10 μM,-64.26 ± 6.54%
same,Inhibition rate (%),HIV pseudovirus (18A-41); 50 μM,81.96 ± 6.75%
same,Inhibition rate (%),"HIV pseudovirus (18A-41); 100 μM, negative value = promotes infection",83.84 ± 3.84%
same,Fluorescence intensity,Neocopyovirus,2.9 ± 0.11
